One compound from PMC12624434 (ACS Pharmacology & Translational Science, 2025) can be followed below.

Values joined by “and” are separate entries in the source; they are usually repeats but may differ in a detail not shown here. Equal values may be shown once. “Also recorded” adds a separate entry of the source. Read-outs that look alike come from different tables or passages of the source. Marks after values point to notes of the source that are not given here.

For orientation: Kd means the constant that tells how readily two partners part at equilibrium. Usually AUC(0-inf) stands for total exposure, with the tail of the curve extrapolated. A word on the AUC(0-t): it is the area under the concentration-time curve up to a stated or last time point. Low values mean low exposure, high ones high exposure. In general, Cmax refers to the highest concentration seen after dosing. Broadly, the Tmax is the time from dosing to the highest level. As a reminder, the Vd is the apparent volume that relates the amount in the body to the concentration in plasma or blood. By half-life is commonly meant how long it takes for the measured level to halve. A word on the clearance: it is the rate of elimination divided by the concentration. A low value points to a low capacity for elimination. For orientation: AUC means the area under the concentration-time curve, a measure of exposure. As usually defined, the IC50 is the midpoint of a concentration-inhibition curve.

In data set [1] the test system is P-p38 in human brain endothelial cell line hCMEC/D3. In words: p38 phosphorylation in hCMEC/D3 cells (immunoblotting). Format: cell-based. The method, then:
Cell lysates of the human brain endothelial cell line hCMEC/D3 were prepared in RIPA buffer containing 0.1% SDS, protease inhibitor cocktail 2 and phosphatase inhibitor cocktail (Sigma-Aldrich). Proteins were separated by SDS-PAGE and transferred to nitrocellulose by wet electrotransfer. Membranes were blocked with 5% milk in Tris-buffered saline (TBS) overnight at 4 °C and then incubated with the appropriate primary antibody diluted in TBS containing 0.1% Tween-20 and 1% BSA for 2 h and 30 min at rt; the primary antibodies used were specific for phospho P-p38, p38 (1:1000; Cell Signaling Technology) and GADPH (1:10000; Merck). Membranes were washed with 0.1% Tween-20 in TBS and then incubated with goat antimouse or goat antirabbit horseradish peroxidase (HRP)-conjugated IgG (GE Healthcare) diluted 1:10,000 or 1:5000, respectively, with 0.1% Tween-20, 1% BSA in PBS. Membranes were developed using the ECL reagents (Roche) and images were acquired with the Bio-Rad ChemiDoc MP Imaging System and the Bio-Rad Image Lab software (version 6.0.1). Protein bands were quantified using ImageJ software version 1.52a (NIH Bethesda), whereby signal intensity was normalized to signal intensity from GADPH from the same sample as a loading control. Phosphorylation levels were normalized against the total levels of p38. Densitometric quantification of three independent immunoblots was determined by changes in protein or phosphoprotein content normalized to GADPH total protein loading controls, with values expressed as fold increase. Data are shown as mean ± SD. Statistical analysis included one-way ANOVA with significance levels set at 0.05, followed by posthoc Dunnett’s tests.

The subject of data set [2] is total Na+ currents in rat DRG neurons. In words: Whole-cell patch-clamp of Na+ currents in dissociated DRG neurons. In kind it is cell-based. As to conditions: for V 1/2 activation, total Na+ / V 1/2 inactivation, total Na+: mean ± SEM (n cells). (The patch-clamp technique gives a direct electrical read-out from membranes.)
Procedure: Recordings were obtained from acutely dissociated DRG neurons obtained from female rats as described earlier. Patch-clamp recordings were performed at room temperature (22–24 °C). Currents were recorded using an EPC 10 Amplifier-HEKA (HEKA Elektronik, Ludwigshafen, Germany) linked to a computer with Patchmaster software.
To determine the effect of VEGFA application on voltage-gated sodium currents, we incubated DRG neurons for 30 min with recombinant rat VEGFA, 1 nM (Cat#P4853, Abnova, Taipei, Taiwan) before whole-cell patch-clamp recordings. […] For the control condition, DRG neurons were incubated for 30 min with DMSO at a final concentration of 0.1%.
For Na^+ current (I Na+) recordings, the external solution contained (in mM): 130 NaCl, 3 KCl, 30 tetraethylammonium chloride, 1 CaCl2, 0.5 CdCl2, 1 MgCl2, 10 D-glucose and 10 HEPES (pH 7.3 adjusted with NaOH, and mOsm/L = 315). Patch pipettes were filled with an internal solution containing (in mM): 140 CsF, 1.1Cs-EGTA, 10 NaCl, and 15 HEPES (pH 7.3 adjusted with CsOH, and mOsm/L = 300). Peak Na^+ current was acquired by applying 150 ms voltage steps from – 70 to +60 mV in 5-mV increments from a holding potential of – 60 mV to obtain the current–voltage (I–V) relation.
Normalization of currents to each cell’s capacitance (pF) was performed to allow for collection of current density data. For I–V curves, functions were fitted to data using a nonlinear least-squares analysis. I–V curves were fitted using double Boltzmann functions: f=a+g1/(1+exp((x−V1/21)/k1))+g2/(1+exp(−(x−V1/22)/k2)) where x is the membrane potential, V 1/2 is the midpoint potential and k is the corresponding slope factor for single Boltzmann functions. Double Boltzmann fits were used to describe the shape of the curve, not to imply the existence of separate channel populations. Numbers 1 and 2 simply indicate first and second midpoints; a along with g are fitting parameters.
Activation curves were obtained from the I–V curves by dividing the peak current at each depolarizing step by the driving force according to the equation: G = I/(V mem – E rev), where I is the peak current, V mem is the membrane potential and E rev is the reversal potential. The conductance (G) was normalized against the maximum conductance (G max). Steady-state inactivation (SSI) curves were obtained by applying an H-infinity protocol that consisted of 1-s conditioning prepulses from −120 to +10 mV in 10-mV increments followed by a 200 ms test pulse to +10 mV. Inactivation curves were obtained by dividing the peak current recorded at the test pulse by the maximum current (I max). Activation and SSI curves were fitted with the Boltzmann equation.
Data set [3] addresses T1, NRP1 b1 domain (Homo sapiens, UniProt O14786).
T1 construct: with the purified recombinant NRP1 b1 domain immobilized on the chip; inferred from Ni-NTA capture), TEV-cleavable (cleaved yes); made in house; host or cells: E. coli Rosetta (DE3)
T1 sequence (O14786 275-424 limits assumed): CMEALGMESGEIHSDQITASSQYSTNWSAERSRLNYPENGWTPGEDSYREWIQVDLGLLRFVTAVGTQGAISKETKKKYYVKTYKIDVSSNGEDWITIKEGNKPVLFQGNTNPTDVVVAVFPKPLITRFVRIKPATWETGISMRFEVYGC
In words: SPR binding to immobilized NRP1 b1 domain (Biacore 4000, CM5 chip). For orientation: In SPR one partner is held on a chip, and binding of the other changes the refractive index at the surface.

Data set [4] can be described thus: Pharmacokinetics in mice, 2 mg/kg iv. To be noted: female, BALB/c, mouse, plasma. In kind it is in vivo. The method, then: To test compound drug-like properties, selected compounds with low IC50 were further evaluated for their pharmacokinetic (PK) profile. 6–8 week-old BABL/c female mice were used. Two mg/kg of compounds was formulated in 7.5% DMSO and 92.5% PBS solution and intravenously dosed into the tail vein as a bolus. Blood samples were collected by cardiac puncture at 5, 15, 30, 60, 180, and 240 min post dosing. Plasma samples were prepared by centrifugation at 7000 rpm for 5 min, and supernatants were collected, immediately snap-frozen on dry ice and stored at −20 °C. Samples were analyzed by liquid chromatography-tandem mass spectrometry using electrospray ionization and data was analyzed by WinNonlin software.

Data set [5] addresses T2, NRP1-a1,b1 (Homo sapiens, UniProt O14786).
T2 sequence (O14786 273-427 limits assumed): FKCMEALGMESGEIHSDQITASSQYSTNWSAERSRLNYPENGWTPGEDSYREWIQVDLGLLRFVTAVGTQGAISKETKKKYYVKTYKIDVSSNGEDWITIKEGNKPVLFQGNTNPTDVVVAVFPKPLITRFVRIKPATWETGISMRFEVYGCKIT
The data set is described as follows: bt-VEGFA cell-free competition binding assay (plate-based). On the procedure: The assay was conducted as previously described. Briefly, the 96-well plates were precoated with NRP1 protein at 3 μg/mL overnight at 4 °C. On the following day, the plates were treated with blocking buffer (PBS containing 1%1% BSA) and washed three times with wash buffer (PBS containing 0.1% Tween-20). The various concentrations of compounds diluted in PBS containing 1%1% DMSO were added, followed by addition of 0.25 nM of bt-VEGFA165. After 2 h of incubation at room temperature, the plates were washed three times with wash buffer. The bound bt-VEGFA165 to NRP1 was detected by streptavidin– horseradish peroxidase conjugates and the enzyme substrate, and measured using a Tecan Genius plate reader at 450 nm with a reference wavelength at 595 nm. Nonspecific binding was determined in the absence of NRP1-coated wells of the plates.

Regarding `N=C(N)NCCC[C@H](NC(=O)c1sccc1NS(=O)(=O)c1cc(NCc2csc(N3CCNCC3)n2)cc2cccnc12)C(=O)O.O=CO` [Compound 12h, (2S)-5-Guanidino-2-[[3-[[6-[(2-piperazin-1-ylthiazol-4-yl)-methylamino]-8-quinolyl]-sulfonylamino]-thiophene-2-carbonyl]-amino]-pentanoic Acid, Formic Acid], the “p38 phosphorylation when added alone” value in data set [1] (30 μM alone, 5 min) is recorded as “did not induce p38 phosphorylation”. Further, the “effect on VEGFA-induced p38 phosphorylation” value in data set [1] (30 μM, 15 min prior to VEGFA165 stimulation) is listed as “prevented VEGFA-induced p38 phosphorylation”. For the same compound, the “effect on Na+ currents, alone” value in data set [2] (30 μM alone, 30 min) is given as “Neither EG00229 nor 12h alone had any obvious effect”. Moreover, in data set [2] (30 μM, then VEGFA165 1 nM 30 min, small-sized DRG neurons), the “effect on VEGFA-induced increase in Na+ currents and current density” value is “equally reduced; also recorded: prevented the VEGFA-mediated increase in total sodium currents”. In data set [2] (compound 30 μM + VEGFA), the “V 1/2 activation, total Na+” value is recorded as “–16.420 ± 0.916 (10) ^b mV” and the “V 1/2 inactivation, total Na+” value is reported as “–47.632 ± 1.411 (10) mV”. In data set [2] (compound alone, 30 μM), the “V 1/2 activation, total Na+” value is recorded as “–16.819 ± 0.840 (10) ^b mV” and the “V 1/2 inactivation, total Na+” value is reported as “–52.032 ± 2.123 (10) mV”. For the same compound, the kon in data set [3] (Figure 2B, SPR-derived binding parameters, read-out: ka) turned out to be 1.16e+06 M⁻¹ s⁻¹. Besides, the Kd in data set [3] (steady-state binding, 25 °C, mean ± SD, read-out: SPR NRP1 b1 domain equilibrium KD) was 0.6 ± 0.1 µM. Further, in data set [4], the area under the curve AUC(0-inf) worked out at 1370 ng·h/mL, the AUC(0-t) was 1370 ng·h/mL, the Cmax is 5180 ng/mL and the Tmax came out at 4.8 min. Moreover, in data set [4], the Vd is 0.394 L/kg and the half-life is 78 min. In data set [4] (iv, 2 mg/kg), this compound showed a clearance of 24.5 mL/min/kg. Further, the area under the curve (AUC) in data set [4] (read-out: AUC) turned out to be 1370 ng·h/mL. Moreover, the concentration for half-maximal inhibition (IC50) in data set [5] (0.25 nM bt-VEGFA165, mean ± SEM, at least three independent experiments, read-out: Competition analysis bt-VEGFA, cell-free NRP1-a1,b1 IC50) was 0.32 ± 0.04 µM. In addition, in data set [5] (plate-based assay, Figure 2D, read-out: IC50, competitive inhibition of bt-VEGFA binding to NRP1), the IC50 was 0.362 µM and < 0.5 µM.
